Experimental findings from patent publication US20230141981A1, “NOVEL COMPOUNDS AND COMPOSITION FOR TARGETED THERAPY OF KIDNEY-ASSOCIATED CANCERS” (SHANGHAI MICURX PHARMACEUTICALS CO., LTD, priority 2020, published 2023) are described below.

In data set [1] the test system is Caki-1. Briefly: In vitro inhibition of cancer cells, CTG assay, 72 h. It is filed as cell-based, human. The conditions noted are these: Caki-1, 72 h incubation. An excerpt:
In vitro activity of compounds provided herein may be assessed by standard testing procedures using various cancer cell lines (alongside normal cell comparators), such as described, for example, in ACS Pharmacol. Transl. Sci. 2019, vol. 2, p. 18; J. Med. Chem. 2018, vol. 61, p. 5304; and methods in references cited therein.
Therein, Caki-1 is a human clear cell renal cell carcinoma (ccRCC) line. The ACTHN cell line was derived from the pleural effusion of a patient with metastatic renal carcinoma. The 786-O cell line is a hypertriploid renal cancer cell carcinoma cell line. Generally, cells were plated into […] microplates and pre-incubated for 24 h. Subsequently, the test compound solutions were added, and cells growth inhibition analyzed with 9-point data plot. After 72 h of the incubation, the number and proportion of the viable cells was determined by CTG assay, and IC50 values calculated.

The nature of data set [2]: Mouse PK: axitinib concentration in blood plasma and kidney tissue post-administration. It is filed as in vivo. Conditions: oral gavage, single dose 10 mg/kg. As to the method:
Preferential accumulation of compounds provided herein in kidneys (or near the site of a kidney cancer) may be evaluated by pharmacokinetic (PK) tests, such as in a standard rat PK test.
In PK studies, the levels (concentration) of a therapeutic drug is determined in key body compartments, such as blood and select organ tissues, is determined over a given time course. […] For therapy of renal cancers, the targeted organ is kidney.

Data set [3] is described as follows: 14-days repeat-dose mouse tolerability test. Conditions: in vivo, 18 mg/kg/day, read-out: well-tolerated dose, 14-days repeat-dose. An excerpt: In addition the high efficacy against renal cancers, such drug must be well-tolerated.

Usually IC50 stands for the concentration that inhibits the measured activity by half. A low value points to higher potency.

Bridge positions count the residues as written; N and C are the ends. Square brackets hold non-standard residues; d marks the D form. Peptide text beside a SMILES is read from it. * marks the point of attachment. X1 = CNC(=O)c1ccccc1Sc1ccc2c(/C=C/c3ccccn3)nn(C(=O)N(CCNC(=O)CC[C@H](N)C(=O)O)CCC(=O)*)c2c1; X3 = CNC(=O)c1ccccc1Sc1ccc2c(/C=C/c3ccccn3)nn(C(=O)*)c2c1; Dab = NCC[C@H](N)C(=O)O

`Cc1ccc(Nc2nccc(N(C)c3ccc4c(C)n(C)nc4c3)n2)cc1S(N)(=O)=O` [Pazopanib, 5-[[4-[(2,3-dimethylindazol-6-yl)-methylamino]pyrimidin-2-yl]amino]-2-methylbenzenesulfonamide]: in data set [1] (Homo sapiens), the half-maximal inhibitory concentration (IC50) was 19.4 µM. On the same count and under the same terms, to `CCN(CC)CCNC(=O)c1c(C)[nH]c(/C=C2\C(=O)Nc3ccc(F)cc32)c1C` [Sunitinib, (Z)—N-(2-(diethylamino)ethyl)-5-((5-fluoro-2-oxoindolin-3-ylidene)methyl)-2,4-dimethyl-1H-pyrrole-3-carboxamide] belongs 6.9 µM. Consider `CNC(=O)c1ccccc1Sc1ccc2c(/C=C/c3ccccn3)n[nH]c2c1` [Axitinib, N-methyl-2-[[3-[(E)-2-pyridin-2-ylethenyl]-1H-indazol-6-yl]sulfanyl]benzamide], for which the “Blood Plasma Conc. (axitinib)” value is recorded as “T = 4 h: 95.1 ng/mL” in data set [2] (T = 4 h) and “T = 6 h: 35.4 ng/mL” in data set [2] (T = 6 h). With `CNC(=O)c1ccccc1Sc1ccc2c(/C=C/c3ccccn3)nn(C(=O)N[C@@H](CCN)C(=O)N[C@H](C(=O)N[C@@H](CCN)C(=O)N[C@H]3CCNC(=O)[C@H]([C@@H](C)O)NC(=O)[C@H](CCN)NC(=O)[C@H](CCN)NC(=O)[C@H](CC(C)C)NC(=O)[C@@H](Cc4ccccc4)NC(=O)[C@H](CCN)NC3=O)[C@@H](C)O)c2c1` [Example 17] (X3-[Dab]T[Dab][Dab][Dab][dF]L[Dab][Dab]T; lactam 4-C), the IC50 in data set [1] turned out to be 8.6 µM. As for `CNC(=O)c1ccccc1Sc1ccc2c(/C=C/c3ccccn3)nn(C(=O)N(CCNC(=O)CC[C@H](N)C(=O)O)CCC(=O)N[C@H](C(=O)N[C@@H](CCN)C(=O)N[C@H]3CCNC(=O)[C@H]([C@@H](C)O)NC(=O)[C@H](CCN)NC(=O)[C@H](CCN)NC(=O)[C@H](CC(C)C)NC(=O)[C@@H](Cc4ccccc4)NC(=O)[C@H](CCN)NC3=O)[C@@H](C)O)c2c1` [Example 29] (X1-T[Dab][Dab][Dab][dF]L[Dab][Dab]T; lactam 3-C; N-terminus assumed), the MTD at 336 h in data set [3] was at least 18 mg/kg/day.
